# In paper PMC10362319 (Toxicon: X, 2023):
# What was measured:
# [1] = HLM incubation, decreasing thereafter
# [2] = BTX-2 5 μM, 60 min incubations with HLM and fish microsomes
# [3] = GSH conjugation of BTX-2 with deactivated RSN2 microsomes and 100 μM GSH; type: in vitro ADME, Lutjanus campechanus
# [4] = Chemical GSH conjugation of BTX-2 without microsomes; type: physicochemical
# [5] = GSH conjugation of BTX-2 with active RSN2 microsomes and 100 μM GSH; type: in vitro ADME, Lutjanus campechanus
# [6] = RSN1 control without NADPH regeneration system
substance,measurement,setting,value
"41,43-dihydro-BTX-2 [Compound 2b]",time at which the metabolite reached a maximum,[1],about 15 min
"41,43-dihydro-BTX-B5 [Compound 5d]",occurrence of the metabolite across microsomal incubations,[2],only produced by HLM
"41,43-dihydro-BTX-B5 [Compound 5e]",occurrence of the metabolite across microsomal incubations,[2],only produced by HLM
A-ring hydrolyzed BTX-3 [Compound 6a],occurrence of the metabolite across microsomal incubations,[2],produced in all fish microsomes and in HLM
BTX-2-GSH [Compound 12],formation rate of BTX-2-GSH,[3],0.46 min⁻¹
same,formation rate of BTX-2-GSH,[4],0.46 min⁻¹
same,formation rate of BTX-2-GSH,[5],0.18 min⁻¹
BTX-9 [Compound 3],metabolite formation where the NADPH regeneration system was excluded,[6],not formed
Hydroxyl BTX-2 (rings A-E) [Compound 4b],occurrence of the metabolite across microsomal incubations,[2],occurred mainly in the two Lutjanid species
